Nine compounds from patent US20230043863A1, “HETEROAROMATIC DERIVATIVES FOR USE AS REGULATOR, PREPARATION METHOD THEREFOR AND USE THEREOF” (JIANGSU HANSOH PHARMACEUTICAL GROUP CO., LTD., priority 2018, published 2023) can be followed below.

Molecules are shown by their SMILES.

The assay deals with C57BL/6 mouse colitis model induced by DSS. Briefly: C57BL/6 mouse colitis model induced by DSS, daily disease index. The format is in vivo. To be noted: po, 216 h, 10 mg/kg p.o. BID, Day 0-9, vs vehicle group, read-out: reduction ratio of DAI AUC. As for the experimental part: To evaluate the drug efficacy of the embodiment compound on the C57BL/6 mouse colitis model induced by DSS (dextran sulfate sodium).
According to the weight of the animal, BioBook software was used to randomly group the animals on day −1 to ensure that the weight values of each group of animals were similar to reduce deviation, and the grouping and dosing regimen are shown in the following Table.
Drinking water containing DSS: an appropriate amount of DSS powder was dissolved in the autoclaved drinking water to prepare a 2% DSS solution.
On day −1, the animals were equally divided into 12 groups with 10 animals in each group. (Refer to Table 1 for specific grouping scheme)
From 9:00 on day 0 to 9:00 on day 6, the mice in groups 2 to 9 were given 2% DSS aqueous solution for 6 days (from day 0 to day 6), after which the mice were allowed to freely drink normal water for 3 days (from 9:00 on day 6 to before necropsy on day 9). The day of modeling was counted as day 0. The DSS aqueous solution was wrapped in tin foil to protect it from light. The DSS aqueous solution was replaced every 2 days.
The mice in group 1 are allowed to drink normal water freely for 9 days (from 9:00 on day 0 to before necropsy on day 9).
The recording frequency was once a day, and 4 levels were rated according to the following standards:
Bloody stool (0: negative; 4: positive);
Stool score (0: normal; 2: loose stool; 4: diarrhea)
Daily Disease Index (DAI) was obtained by dividing the sum the scores of the above 3 parts by 3. DAI-time (day) curve based on the daily DAI score was plotted, and the peak area (AUC) under the curve was calculated. The reduction ratio of DAI AUC was calculated by comparing the administration group with the vehicle group, with a calculation formula of (DAI AUCadministration group-DAI AUCvehicle)/DAI AUCVehicle×100%
As to `Cc1cc(Nc2nc(N[C@@H]3C[C@H]4CC[C@@H](C3)N4CCC#N)nc3ccsc23)n[nH]1` [Embodiment 60, 3-((3-exo)-3-((4-((5-methyl-1H-pyrazol-3-yl)amino)thieno[3,2-d]pyrimidin-2-yl)amino)-8-azabicyclo[3.2.1]oct-8-yl)propionitrile], the change in vivo at 10 mg/kg is -20.8%.
The figure for `COc1ccc2c(Nc3cc(C)[nH]n3)nc(N[C@@H]3C[C@H]4CC[C@@H](C3)N4CCC#N)nc2c1` [Embodiment 169, 3-((3-exo)-3-((7-methoxyl-4-((5-methyl-1H-pyrazol-3-yl)amino)quinazolin-2-yl)amino)-8-azabicyclo[3.2.1]oct-8-yl)propionitrile] is -34.3%; for `Cc1cc(Nc2nc(N[C@@H]3C[C@H]4CC[C@@H](C3)N4CCC#N)nc3cc(Br)ccc23)n[nH]1` [Embodiment 170, 3-((3-exo)-3-((7-bromine-4-((5-methyl-1H-pyrazol-3-yl)amino)quinazolin-2-yl)amino)-8-azabicyclo[3.2.1]oct-8-yl)propionitrile] it is -27.9%.
Regarding `Cc1cc(Nc2nc(N[C@@H]3C[C@H]4CC[C@@H](C3)N4S(=O)(=O)N3CC(C#N)C3)nc3ccccc23)n[nH]1` [Embodiment 213, 1-(((3-exo)-3-((4-((5-methyl-1H-pyrazol-3-yl)amino)quinazolin-2-yl)amino)-8-azabicyclo[3.2.1]oct-8-yl)sulfonyl)azetindin-3-formonitrile], the change in vivo at 10 mg/kg is -24.4%.
In the case of `Cc1cc(Nc2nc(N[C@@H]3C[C@H]4CC[C@@H](C3)N4S(=O)(=O)N3CC(C#N)C3)nc3cc(Cl)ccc23)n[nH]1` [Embodiment 214] it was -28.9%; in that of `Cc1cc(Nc2nc(N[C@@H]3C[C@H]4CCC[C@@H](C3)N4C(=O)CN3CCOCC3)nc3sccc23)n[nH]1` [Embodiment 246, 1-((3-exo)-3-((4-((5-methyl-1H-pyrazol-3-yl)amino)thieno[2,3-d]pyrimidin-2-yl)amino)-9-azabicyclo[3.3.1]non-9-yl)-2-morpholinoethane-1-one], -38.6%.
For `CNCC(=O)N1[C@@H]2CCC[C@H]1C[C@H](Nc1nc(Nc3cc(C)[nH]n3)c3ccsc3n1)C2` [Embodiment 247, 1-((3-exo)-3-((4-((5-methyl-1H-pyrazol-3-yl)amino)thieno[2,3-d]pyrimidin-2-yl)amino)-9-azabicyclo[3.3.1]non-9-yl)-2-(methylamino)-ethane-1-one], the change in vivo at 10 mg/kg is -22.1%.
As for `Cc1cc(Nc2nc(N[C@@H]3C[C@H]4CCC[C@@H](C3)N4C(=O)c3ccccn3)nc3sccc23)n[nH]1` [Embodiment 260, ((3-exo)-3-((4-((5-methyl-1H-pyrazol-3-yl)amino)thieno[2,3-d]pyrimidin-2-yl)amino)-9-azabicyclo[3.3.1]non-9-yl)(pyridin-2-yl)methanone], the change in vivo at 10 mg/kg is -23.4%.
Regarding `Cc1cc(Nc2nc(N[C@@H]3C[C@H]4CCC[C@@H](C3)N4CCC#N)nc3scnc23)n[nH]1` [Embodiment 278, 3-((3-exo)-3-((7-((5-methyl-1H-pyrazol-3-yl)amino)thiazolo[5,4-d]pyrimidin-5-yl)amino)-9-azabicyclo[3.3.1]non-9-yl)propionitrile], the change in vivo at 10 mg/kg is -34.9%.
